Experimental findings from US10239849B2 (Merck Sharp & Dohme Corp., priority 2015, dated 2019) are described below.

Test [1] addresses T1, glutathione-S-transferase (GST) tagged LXRbeta LBD (ligand binding domain) (Homo sapiens, UniProt P55055).
T1 construct: purchased Invitrogen pv4658.pps
T1 sequence (P55055 222-460 limits assumed): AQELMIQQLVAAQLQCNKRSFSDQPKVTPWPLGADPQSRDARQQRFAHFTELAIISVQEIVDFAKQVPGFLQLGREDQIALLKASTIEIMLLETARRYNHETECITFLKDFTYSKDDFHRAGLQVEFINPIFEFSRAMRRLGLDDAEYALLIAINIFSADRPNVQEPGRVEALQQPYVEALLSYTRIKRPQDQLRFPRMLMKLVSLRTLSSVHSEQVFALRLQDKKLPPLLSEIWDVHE
As to the kind of experiment: LanthaScreen TR-FRET Liver X Receptor Coactivator Assay, LXR beta-LBD. The settings on record: for Emax: efficacy in relation to reference dual agonist T1317, read-out: LXR beta activity at max dose (%) (Emax); for EC50: potency (Inflection Point) of co-activator recruitment, TR-FRET, read-out: LXR beta IP. It is filed as biochemical. In short, it runs like this:
(§1)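 Measures ligand-driven coactivator peptide binding by time-resolved energy transfer between terbium-tagged anti-GST antibody and fluorescein-labelled peptide. Incubation is at room temperature.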
In general terms: TR-FRET usually uses a lanthanide donor and a delayed reading to cut background.

Test [2] concerns the target T2, glutathione-S-transferase (GST) tagged LXRalpha LBD (ligand binding domain) (Homo sapiens, UniProt Q13133).
T2 construct: purchased Invitrogen pv4655
T2 sequence (Q13133 209-447 limits assumed): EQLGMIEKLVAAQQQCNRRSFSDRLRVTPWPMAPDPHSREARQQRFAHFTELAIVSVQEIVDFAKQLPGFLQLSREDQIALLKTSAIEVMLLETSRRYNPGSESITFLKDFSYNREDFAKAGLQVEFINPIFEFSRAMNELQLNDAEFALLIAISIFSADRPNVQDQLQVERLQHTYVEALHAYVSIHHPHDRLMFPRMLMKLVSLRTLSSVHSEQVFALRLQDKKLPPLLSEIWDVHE
Description: LanthaScreen TR-FRET Liver X Receptor Coactivator Assay, LXR alpha-LBD. Format: biochemical. Particulars: for Emax: efficacy in relation to reference dual agonist T1317, read-out: LXR alpha activity at max dose (%) (Emax); for EC50 / LXR alpha IP (nM): potency (Inflection Point) of co-activator recruitment, TR-FRET; for EC50: read-out: LXR alpha IP. In a few lines:
as §1

The term Emax denotes the maximal effect, on the per cent scale that the assay sets. Take `CN(C)C(=O)c1ccc(-c2cnc(N3CCN(C(=O)OCC4(C)CC4)CC3)c(C#N)c2)cc1Cl` [Example 3-12, (1-methylcyclopropyl)methyl 4-{5-[3-chloro-4-(dimethylcarbamoyl)phenyl]-3-cyanopyridin-2-yl}piperazine-1-carboxylate]: in test [1], the maximal effect (Emax) was 55% and the EC50 turned out to be 39 nM. Also, in test [2], the Emax amounted to 30% and the EC50 turned out to be 4330 nM.

`CN(CCn1ccnc1)C(=O)c1ccc(-c2cnc(N3CCN(C(=O)OC(C)(C)C)CC3)c(C#N)c2)cc1Cl` [Example 5-21, tert-butyl 4-[5-(3-chloro-4-{[2-(1H-imidazol-1-yl)ethyl](methyl)carbamoyl}phenyl)-3-cyanopyridin-2-yl]piperazine-1-carboxylate]: the Emax is 81% in test [1] and 37% in test [2]. The values for the EC50 in test [1] and in test [2] were 931 nM and 9240 nM, respectively.

`COc1ccc2nc(CCN(C)C(=O)c3ccc(-c4cnc(N5CCN(C(=O)OC(C)(C)C)CC5)c(C#N)c4)cc3Cl)[nH]c2c1` [Example 5-33, tert-butyl 4-[5-(3-chloro-4-{[2-(6-methoxy-1H-benzimidazol-2-yl)ethyl](methyl)carbamoyl}phenyl)-3-cyanopyridin-2-yl]piperazine-1-carboxylate]: in test [1], the Emax came to 78% and the EC50 was determined as 703 nM. For the same molecule, in test [2], the Emax amounted to 52% and the EC50 worked out at 4830 nM.

With `CN(C)C(=O)c1ccc(-c2cnc(N3CCN(S(=O)(=O)c4c(Cl)cccc4Cl)CC3)c(C#N)c2)cc1Cl` [Example 1-1, 2-chloro-4-(5-cyano-6-{4-[(2,6-dichlorophenyl)sulfonyl]piperazin-1-yl}pyridin-3-yl)-N,N-dimethylbenzamide], in test [1], the Emax was 124% and the EC50 was determined as 7 nM. Besides, in test [2], the Emax stood at 55% and the EC50 came to 690 nM.

Regarding `CN(C)C(=O)c1ccc(-c2cnc(N3CCN(C(=O)c4c(F)cccc4F)CC3)c(C#N)c2)cc1Cl` [Example 2-1, 2-chloro-4-(5-cyano-6-{4-[(2,6-difluorophenyl)carbonyl]piperazin-1-yl}pyridin-3-yl)-N,N-dimethylbenzamide], the Emax worked out at 40% in test [1] and 23% in test [2]. Besides, the EC50 turned out to be 212 nM in test [1] and 8860 nM in test [2].

Take `CN(CCn1cncn1)C(=O)c1ccc(-c2cnc(N3CCN(C(=O)C(C)(C)c4ccccc4)CC3)c(C#N)c2)cc1Cl` [Example 6-3, 2-chloro-4-{5-cyano-6-[4-(2-methyl-2-phenylpropanoyl)piperazin-1-yl]pyridin-3-yl}-N-methyl-N-[2-(1H-1,2,4-triazol-1-yl)ethyl]benzamide]: in test [1], the maximal effect (Emax) came to 113% and the EC50 was 30 nM. For the same molecule, in test [2], the maximal response (Emax) is 33% and the EC50 came to 2420 nM.

In the case of `CN(CCc1ccncc1)C(=O)c1ccc(-c2cnc(N3CCN(C(=O)OC(C)(C)C)CC3)c(C#N)c2)cc1Cl` [Example 5-27, tert-butyl 4-(5-{3-chloro-4-[methyl(2-pyridin-4-ylethyl)carbamoyl]phenyl}-3-cyanopyridin-2-yl)piperazine-1-carboxylate], in test [1], the Emax is 76% and the EC50 came out at 705 nM. Further, in test [2], the Emax was 17% and the “LXR alpha IP (nM)” value is “No IP”.

Regarding `Cc1cccc(COC(=O)N2CCN(c3ncc(-c4ccc(C(=O)N(C)C)c(Cl)c4)cc3C#N)CC2)c1` [Example 3-5, 3-methylbenzyl 4-{5-[3-chloro-4-(dimethylcarbamoyl)phenyl]-3-cyanopyridin-2-yl}piperazine-1-carboxylate], in test [1], the maximum response (Emax) is 97% and the EC50 was determined as 56 nM. For the same molecule, in test [2], the maximal response (Emax) stood at 57% and the EC50 stood at 1340 nM.

As for `CN(C)C(=O)c1ccc(-c2cc(Cl)c(N3CCN(S(=O)(=O)c4c(Cl)cccc4Cl)CC3)c(Cl)c2)cc1Cl` [Example 4-10, 3,3′,5′-trichloro-4′-{4-[(2,6-dichlorophenyl)sulfonyl]piperazin-1-yl}-N,N-dimethylbiphenyl-4-carboxamide], in test [1], the maximal response (Emax) was determined as 77% and the EC50 was found to be 94 nM. In test [2], the Emax worked out at 30% and the EC50 came out at 1260 nM.

In the case of `Cc1nonc1CC(=O)N1CCN(c2ncc(-c3ccc(C(=O)N(C)C)c(Cl)c3)cc2C#N)CC1` [Example 2-10, 2-chloro-4-(5-cyano-6-{4-[(4-methyl-1,2,5-oxadiazol-3-yl)acetyl]piperazin-1-yl}pyridin-3-yl)-N,N-dimethylbenzamide], in test [1], the maximal effect (Emax) is 63% and the EC50 stood at 2330 nM. Besides, in test [2], the Emax worked out at 10% and the “LXR alpha IP (nM)” value is given as “No IP”.

For the molecule `CN(C)C(=O)c1ccc(-c2cnc(N3CCN(C(=O)OC(C)(C)C)CC3)c(Cl)c2)cc1Cl` [Example 9-1, tert-butyl 4-(3-chloro-5-(3-chloro-4-(dimethylcarbamoyl)phenyl)pyridin-2-yl)piperazine-1-carboxylate], in test [1], the maximal effect (Emax) turned out to be 61% and the EC50 worked out at 55 nM. Also, in test [2], the Emax was 48% and the EC50 came out at 1350 nM.

On to `CC(C)S(=O)(=O)N1CCN(c2ncc(-c3ccc(C(=O)N(C)C)c(Cl)c3)cc2C#N)CC1` [Example 1-15, 2-chloro-4-(5-cyano-6-{4-[(1-methylethyl)sulfonyl]piperazin-1-yl}pyridin-3-yl)-N,N-dimethylbenzamide], for which, in test [1], the maximum response (Emax) came out at 86% and the EC50 amounted to 437 nM. Further, in test [2], the Emax was found to be 43% and the EC50 was determined as 19500 nM.

`CN(C)C(=O)c1ccc(-c2cnc(N3CCN(S(=O)(=O)c4ccccc4C#N)CC3)c(C#N)c2)cc1Cl` [Example 1-9, 2-chloro-4-(5-cyano-6-{4-[(2-cyanophenyl)sulfonyl]piperazin-1-yl}pyridin-3-yl)-N,N-dimethylbenzamide]: the Emax in test [1] came out at 123%; in test [2], 46%. For the same molecule, the EC50 was 22 nM in test [1] and 618 nM in test [2].

Consider `CN(C)C(=O)c1ccc(-c2cnc(N3CCN(C(=O)C(O)(c4ccccc4)C(F)(F)F)CC3)c(C#N)c2)cc1Cl` (stereo not shown) [Example 2-32, 2-chloro-4-{5-cyano-6-[4-(3,3,3-trifluoro-2-hydroxy-2-phenylpropanoyl)piperazin-1-yl]pyridin-3-yl}-N,N-dimethylbenzamide], for which the Emax in test [1] is 98%; in test [2], 37%. In addition, the values for the EC50 in test [1] and in test [2] were 4 nM and 3050 nM, respectively.

`Cc1noc(C)c1CC(=O)N1CCN(c2ncc(-c3ccc(C(=O)N(C)C)c(Cl)c3)cc2C#N)CC1` [Example 2-14, 2-chloro-4-(5-cyano-6-{4-[(3,5-dimethylisoxazol-4-yl)acetyl]piperazin-1-yl}pyridin-3-yl)-N,N-dimethylbenzamide]: in test [1], the Emax came to 77% and the EC50 came out at 1350 nM. Besides, in test [2], the Emax was 23% and the “LXR alpha IP (nM)” value is given as “No IP”.

Regarding `CN(C)C(=O)c1ccc(-c2ccc(N3CCN(C(=O)OC(C)(C)C)CC3)cc2)cc1Cl` [Example 4-11, tert-butyl 4-[3′-chloro-4′-(dimethylcarbamoyl)biphenyl-4-yl]piperazine-1-carboxylate], the maximal effect (Emax) in test [1] was 82%; in test [2], 55%. For the same molecule, the EC50 in test [1] came out at 238 nM; in test [2], 5470 nM.

With `CN(C)C(=O)c1ccc(-c2cnc(N3CCN(C(=O)C(=O)C(F)(F)F)CC3)c(C#N)c2)cc1Cl` [Example 2-9, 2-chloro-4-{5-cyano-6-[4-(3,3,3-trifluoro-2-oxopropanoyl)piperazin-1-yl]pyridin-3-yl}-N,N-dimethylbenzamide], the Emax in test [1] worked out at 99%; in test [2] it was 42%. Further, the EC50 in test [1] was 245 nM; in test [2], 16600 nM.

Turning to `CN(C)C(=O)c1ccc(-c2ccc(N3CC4CCC(C3)N4C(=O)OC(C)(C)C)cc2)cc1Cl` [Example 8-3, tert-butyl 3-[3′-chloro-4′-(dimethylcarbamoyl)biphenyl-4-yl]-3,8-diazabicyclo[3.2.1]octane-8-carboxylate], in test [1], the maximal effect (Emax) stood at 87% and the EC50 was 189 nM. In test [2], the maximal response (Emax) is 64% and the EC50 is 11700 nM.

For `CN(C)C(=O)c1ccc(-c2ccc(N3CCN(C(=O)[C@](O)(c4ccccc4)C(F)(F)F)CC3)cc2)cc1Cl` [Example 2-27, 3-chloro-N,N-dimethyl-4′-{4-[(2R)-3,3,3-trifluoro-2-hydroxy-2-phenylpropanoyl]piperazin-1-yl}biphenyl-4-carboxamide], in test [1], the Emax was 80% and the EC50 turned out to be 226 nM. Moreover, in test [2], the maximum response (Emax) was 14% and the “LXR alpha IP (nM)” value is recorded as “No IP”.
